# Assay results from PMC6736360, “P-Glycoprotein–Mediated Efflux Reduces the In Vivo Efficacy of a Therapeutic Targeting the Gastrointestinal Parasite Cryptosporidium” (The Journal of Infectious Diseases, 2019).
# Where two headings read alike, the source gives them in different places.
# Assay: Mouse gastrointestinal tissue pharmacokinetics
# Format: in vivo, mice
# Conditions: for AUC(0-t) / Cmax / Tmax: mouse, po
# Method: At multiple time points following BKI1318 administration, mice were euthanized, and the GI tract was separated into segments corresponding to the duodenum, jejunum, ileum, and cecum/colon. […] At 0.5, 1, 2, 4, 8, and 12 hours, three mice in each group were sacrificed by cervical dislocation, and the duodenum, jejunum, ileum, and cecum/ascending colon were immediately collected. Each section of the GI tract was flushed with Dulbecco's phosphate-buffered saline, weighed, and placed in storage at -80°C. On the day of homogenization, 0.9% NaCl was added to each sample to achieve 200 mg/mL tissue concentration. Samples were homogenized using a handheld motorized homogenizer (Fisher Scientific, Waltham, MA) on ice and stored at -20°C until extraction and analysis. To report tissue concentrations, 1 gram of tissue was estimated to be 1 mL of volume.
smiles,measurement,setting,value
CCOc1ccc2cc(-c3nn(CC4CCNCC4)c4ncnc(N)c34)ccc2n1 [BKI1318],Effect of elacridar on levels in the cecum/colon,"mice, cecum/colon tissue",did not significantly affect
same,Increase of duodenum exposure when elacridar administered before,"mice, duodenum tissue, P < .05",approximately 2 fold
same,Increase of ileum exposure when elacridar administered before,"mice, ileum tissue, P < .05",approximately 3 fold
same,Increase of jejunum exposure when elacridar administered before,"mice, jejunum tissue, P < .05",approximately 2 fold
same,AUC(0-t),"cecum/colon, 30 mg/kg, Cecum/Colon, BKI 1318 alone, read-out: AUC0-12",109 µM·h
same,Cmax,"cecum/colon, 30 mg/kg, Cecum/Colon, BKI 1318 alone, read-out: Observed Cmax",14.4 µM
same,Tmax,"cecum/colon, 30 mg/kg, Cecum/Colon, BKI 1318 alone, read-out: Tmax",9.3 h
same,AUC(0-t),"cecum/colon, Cecum/Colon, with elacridar, read-out: AUC0-12 w/ Elacridar",65.5 ± 4 µM·h
same,Cmax,"cecum/colon, Cecum/Colon, with elacridar, read-out: Cmax w/ Elacridar",8.2 ± 0.3 µM
same,Tmax,"cecum/colon, Cecum/Colon, with elacridar, read-out: Tmax w/ Elacridar",7.3 ± 4.1 h
same,AUC(0-t),"duodenum, Duodenum, BKI 1318 alone, read-out: AUC0-12",235 µM·h
same,Cmax,"duodenum, Duodenum, BKI 1318 alone, read-out: Observed Cmax",77.2 µM
same,Tmax,"duodenum, Duodenum, BKI 1318 alone, read-out: Tmax",0.5 h
same,AUC(0-t),"duodenum, Duodenum, with elacridar, P≤0.001, read-out: AUC0-12 w/ Elacridar",537 µM·h
same,Cmax,"duodenum, Duodenum, with elacridar, read-out: Cmax w/ Elacridar",110 µM
same,Tmax,"duodenum, Duodenum, with elacridar, read-out: Tmax w/ Elacridar",0.7 ± 0.2 h
same,AUC(0-t),"ileum, 30 mg/kg, Ileum, BKI 1318 alone, read-out: AUC0-12",336 µM·h
same,Cmax,"ileum, Ileum, BKI 1318 alone, read-out: Observed Cmax",79.8 µM
same,Tmax,"ileum, Ileum, BKI 1318 alone, read-out: Tmax",4.3 h
same,AUC(0-t),"ileum, Ileum, with elacridar, P≤0.05, read-out: AUC0-12 w/ Elacridar",1150 µM·h
same,Cmax,"ileum, Ileum, with elacridar, read-out: Cmax w/ Elacridar",177 µM
same,Tmax,"ileum, Ileum, with elacridar, read-out: Tmax w/ Elacridar",2 h
same,AUC(0-t),"jejunum, Jejunum, BKI 1318 alone, read-out: AUC0-12",279 µM·h
same,Cmax,"jejunum, Jejunum, BKI 1318 alone, read-out: Observed Cmax",108 µM
same,Tmax,"jejunum, Jejunum, BKI 1318 alone, read-out: Tmax",0.8 h
same,AUC(0-t),"jejunum, Jejunum, with elacridar, P≤0.05, read-out: AUC0-12 w/ Elacridar",558 µM·h
same,Cmax,"jejunum, Jejunum, with elacridar, read-out: Cmax w/ Elacridar",98.1 µM
same,Tmax,"jejunum, Jejunum, with elacridar, read-out: Tmax w/ Elacridar",1.8 ± 1.5 h
